Numbers after ± are expanded uncertainties.
Key:
[1] = activity coefficient (dimensionless); of the first substance listed, at infinite dilution; xn = mol fraction of the nth substance listed; details: 101.33 kPa, Liquid, Chromatography, x1 = 0
[2] = 101.33 kPa, Liquid, Vibrating tube method

| Structure (SMILES) | activity coefficient ([1]; 313.15 K) | activity coefficient ([1]; 323.15 K) | activity coefficient ([1]; 333.15 K) | activity coefficient ([1]; 343.15 K) | activity coefficient ([1]; 353.15 K) | mass density ([2]; 313.15 K) [kg/m3] | mass density ([2]; 323.15 K) [kg/m3] | mass density ([2]; 333.15 K) [kg/m3] | mass density ([2]; 343.15 K) [kg/m3] | mass density ([2]; 353.15 K) [kg/m3] |
| --- | --- | --- | --- | --- | --- | --- | --- | --- | --- | --- |
| Cc1ccccc1C [1,2-dimethylbenzene] + CCCCCCCCn1cc[n+](C)c1C.F[B-](F)(F)F | 3.5 ± 0.37 | 3.58 ± 0.38 | 3.7 ± 0.39 | 3.82 ± 0.4 | 3.87 ± 0.41 | – | – | – | – | – |
| Cc1cccc(C)c1 [1,3-dimethylbenzene] + CCCCCCCCn1cc[n+](C)c1C.F[B-](F)(F)F | 4.19 ± 0.44 | 4.24 ± 0.45 | 4.29 ± 0.45 | 4.35 ± 0.46 | 4.4 ± 0.46 | – | – | – | – | – |
| Cc1ccc(C)cc1 [1,4-dimethylbenzene] + CCCCCCCCn1cc[n+](C)c1C.F[B-](F)(F)F | 4.06 ± 0.43 | 4.12 ± 0.43 | 4.16 ± 0.44 | 4.2 ± 0.44 | 4.24 ± 0.45 | – | – | – | – | – |
| C1COCCO1 [1,4-dioxane] + CCCCCCCCn1cc[n+](C)c1C.F[B-](F)(F)F | 1.67 ± 0.17 | 1.72 ± 0.18 | 1.77 ± 0.18 | 1.81 ± 0.19 | 1.86 ± 0.19 | – | – | – | – | – |
| CCCCCCCCn1cc[n+](C)c1C.F[B-](F)(F)F [1-octyl-2,3-dimethylimidazolium tetrafluoroborate] | – | – | – | – | – | 1092.3 ± 2.5 | 1086 ± 2.5 | 1079.7 ± 2.5 | 1073.3 ± 2.5 | 1067 ± 2.5 |
| CC(C)CC(C)(C)C [2,2,4-trimethylpentane] + CCCCCCCCn1cc[n+](C)c1C.F[B-](F)(F)F | 29.6 ± 3.1 | 28.8 ± 3 | 27.9 ± 2.9 | 26.9 ± 2.8 | 26.1 ± 2.8 | – | – | – | – | – |
| CC(C)CO [2-methyl-1-propanol] + CCCCCCCCn1cc[n+](C)c1C.F[B-](F)(F)F | 2.66 ± 0.28 | 2.54 ± 0.27 | 2.42 ± 0.25 | 2.3 ± 0.24 | 2.19 ± 0.23 | – | – | – | – | – |
| CC(C)=O [acetone] + CCCCCCCCn1cc[n+](C)c1C.F[B-](F)(F)F | 1.38 ± 0.14 | 1.4 ± 0.14 | 1.41 ± 0.15 | 1.42 ± 0.15 | 1.43 ± 0.15 | – | – | – | – | – |
| CC#N [acetonitrile] + CCCCCCCCn1cc[n+](C)c1C.F[B-](F)(F)F | 1.01 ± 0.1 | 1.02 ± 0.1 | 1.04 ± 0.11 | 1.05 ± 0.11 | 1.07 ± 0.11 | – | – | – | – | – |
| c1ccccc1 [benzene] + CCCCCCCCn1cc[n+](C)c1C.F[B-](F)(F)F | 2.04 ± 0.21 | 2.07 ± 0.22 | 2.1 ± 0.22 | 2.12 ± 0.22 | 2.15 ± 0.23 | – | – | – | – | – |
| CCCCO [butan-1-ol] + CCCCCCCCn1cc[n+](C)c1C.F[B-](F)(F)F | 2.79 ± 0.29 | 2.64 ± 0.28 | 2.52 ± 0.26 | 2.4 ± 0.25 | 2.28 ± 0.24 | – | – | – | – | – |
| CCC(C)O (stereo not given) [butan-2-ol] + CCCCCCCCn1cc[n+](C)c1C.F[B-](F)(F)F | 2.93 ± 0.31 | 2.78 ± 0.29 | 2.65 ± 0.28 | 2.51 ± 0.26 | 2.4 ± 0.25 | – | – | – | – | – |
| C1CCCCC1 [cyclohexane] + CCCCCCCCn1cc[n+](C)c1C.F[B-](F)(F)F | 12.8 ± 1.4 | 12.5 ± 1.3 | 12.2 ± 1.3 | 11.9 ± 1.2 | 11.5 ± 1.2 | – | – | – | – | – |
| C1=CCCCC1 [cyclohexene] + CCCCCCCCn1cc[n+](C)c1C.F[B-](F)(F)F | 8.2 ± 0.86 | 8.01 ± 0.84 | 7.81 ± 0.82 | 7.63 ± 0.8 | 7.52 ± 0.79 | – | – | – | – | – |
| CCCCCCCCCC [decane] + CCCCCCCCn1cc[n+](C)c1C.F[B-](F)(F)F | 55.2 ± 5.8 | 54.2 ± 5.7 | 52.9 ± 5.6 | 51.5 ± 5.4 | 50.5 ± 5.3 | – | – | – | – | – |
| ClCCl [dichloromethane] + CCCCCCCCn1cc[n+](C)c1C.F[B-](F)(F)F | 1.08 ± 0.11 | 1.09 ± 0.11 | 1.1 ± 0.11 | 1.1 ± 0.11 | 1.11 ± 0.11 | – | – | – | – | – |

| Structure (SMILES) | activity coefficient ([1]; 313.15 K) | activity coefficient ([1]; 323.15 K) | activity coefficient ([1]; 333.15 K) | activity coefficient ([1]; 343.15 K) | activity coefficient ([1]; 353.15 K) | mass density ([2]; 313.15 K) [kg/m3] | mass density ([2]; 323.15 K) [kg/m3] | mass density ([2]; 333.15 K) [kg/m3] | mass density ([2]; 343.15 K) [kg/m3] | mass density ([2]; 353.15 K) [kg/m3] |
| --- | --- | --- | --- | --- | --- | --- | --- | --- | --- | --- |
| CCO [ethanol] + CCCCCCCCn1cc[n+](C)c1C.F[B-](F)(F)F | 2.12 ± 0.22 | 1.96 ± 0.21 | 1.82 ± 0.19 | 1.67 ± 0.17 | 1.54 ± 0.16 | – | – | – | – | – |
| CCOC(C)=O [ethyl acetate] + CCCCCCCCn1cc[n+](C)c1C.F[B-](F)(F)F | 2.91 ± 0.31 | 2.96 ± 0.31 | 2.96 ± 0.31 | 2.96 ± 0.31 | 2.96 ± 0.31 | – | – | – | – | – |
| CCc1ccccc1 [ethylbenzene] + CCCCCCCCn1cc[n+](C)c1C.F[B-](F)(F)F | 4.36 ± 0.46 | 4.42 ± 0.46 | 4.46 ± 0.47 | 4.5 ± 0.47 | 4.57 ± 0.48 | – | – | – | – | – |
| CCCCCCC [heptane] + CCCCCCCCn1cc[n+](C)c1C.F[B-](F)(F)F | 25.5 ± 2.7 | 25.1 ± 2.6 | 24.7 ± 2.6 | 24.3 ± 2.5 | 23.9 ± 2.5 | – | – | – | – | – |
| CCCCCC [hexane] + CCCCCCCCn1cc[n+](C)c1C.F[B-](F)(F)F | 20 ± 2.1 | 19.8 ± 2.1 | 19.2 ± 2 | 18.7 ± 2 | 18.1 ± 1.9 | – | – | – | – | – |
| CO [methanol] + CCCCCCCCn1cc[n+](C)c1C.F[B-](F)(F)F | 1.57 ± 0.16 | 1.47 ± 0.15 | 1.36 ± 0.14 | 1.26 ± 0.13 | 1.18 ± 0.12 | – | – | – | – | – |
| CC1CCCCC1 [methylcyclohexane] + CCCCCCCCn1cc[n+](C)c1C.F[B-](F)(F)F | 15.8 ± 1.7 | 15.5 ± 1.6 | 15.1 ± 1.6 | 14.7 ± 1.6 | 14.3 ± 1.5 | – | – | – | – | – |
| CCCCCCCCC [nonane] + CCCCCCCCn1cc[n+](C)c1C.F[B-](F)(F)F | 42.2 ± 4.4 | 41.1 ± 4.3 | 39.6 ± 4.2 | 38.4 ± 4 | 37.1 ± 3.9 | – | – | – | – | – |
| CCCCCCCC [octane] + CCCCCCCCn1cc[n+](C)c1C.F[B-](F)(F)F | 33 ± 3.5 | 32.5 ± 3.4 | 32.2 ± 3.4 | 31.8 ± 3.3 | 31.3 ± 3.3 | – | – | – | – | – |
| CCCCC [pentane] + CCCCCCCCn1cc[n+](C)c1C.F[B-](F)(F)F | 15.8 ± 1.7 | 15.3 ± 1.6 | 14.8 ± 1.6 | 14.3 ± 1.5 | 14 ± 1.5 | – | – | – | – | – |
| CCCO [propan-1-ol] + CCCCCCCCn1cc[n+](C)c1C.F[B-](F)(F)F | 2.56 ± 0.27 | 2.39 ± 0.25 | 2.24 ± 0.24 | 2.1 ± 0.22 | 1.97 ± 0.21 | – | – | – | – | – |
| CC(C)O [propan-2-ol] + CCCCCCCCn1cc[n+](C)c1C.F[B-](F)(F)F | 2.5 ± 0.26 | 2.35 ± 0.25 | 2.2 ± 0.23 | 2.07 ± 0.22 | 1.93 ± 0.2 | – | – | – | – | – |
| ClC(Cl)(Cl)Cl [tetrachloromethane] + CCCCCCCCn1cc[n+](C)c1C.F[B-](F)(F)F | 4.11 ± 0.43 | 4.16 ± 0.44 | 4.2 ± 0.44 | 4.23 ± 0.44 | 4.26 ± 0.45 | – | – | – | – | – |
| C1CCOC1 [tetrahydrofuran] + CCCCCCCCn1cc[n+](C)c1C.F[B-](F)(F)F | 2.06 ± 0.22 | 2.1 ± 0.22 | 2.12 ± 0.22 | 2.13 ± 0.22 | 2.15 ± 0.23 | – | – | – | – | – |
| Cc1ccccc1 [toluene] + CCCCCCCCn1cc[n+](C)c1C.F[B-](F)(F)F | 2.84 ± 0.3 | 2.89 ± 0.3 | 2.95 ± 0.31 | 3.02 ± 0.32 | 3.09 ± 0.32 | – | – | – | – | – |
| ClC(Cl)Cl [trichloromethane] + CCCCCCCCn1cc[n+](C)c1C.F[B-](F)(F)F | 1.04 ± 0.11 | 1.06 ± 0.11 | 1.07 ± 0.11 | 1.08 ± 0.11 | 1.09 ± 0.11 | – | – | – | – | – |

Source: the NIST ThermoML archive (doi:10.1016/j.jct.2018.09.003)
